Measured values reported in patent US7271264B2, “Pentacyclic oxepines and derivatives thereof, compositions and methods” (Eli Lilly and Company, priority 2002, dated 2007).
Structures can show the parent of a compound that is named as a salt.

Key:
[1] = test system: Ishikawa human endometrial tumor cells; experiment: Ishikawa alkaline phosphatase (PNPP) assay, antagonist mode; type: cell-based; conditions: with E2 (1 nM)
Source text: (§1) Ishikawa human endometrial tumor cells are maintained in MEM (minimum essential medium, with Earle's salts and L-Glutamine, Gibco BRL, Gaithersburg, Md.), supplemented with 10% fetal bovine serum (FBS) (V/V), (Gibco BRL). One day prior to assay, growth media is changed to assay medium, DMEM/F-12 (3:1) (Dulbecco's Modified Eagle Medium: Nutrient Mixture F-12,3:1 Mixture, phenol red-free, Gibco BRL) supplemented with 5% dextran coated charcoal stripped fetal bovine serum (DCC-FBS) (Hyclone, Logen, Utah), L-Glutamine (2 mM), MEM sodium pyruvate (1 mM), HEPES (N-[2-hydroxyethyl]piperazine-N′-[2-ethanesulfonic acid] 2 mM) all from Gibco BRL). After an overnight incubation, ishikawa cells are rinsed with Dulbecco's Phosphate Buffered Saline (1×) (D-PBS) without Ca^+2 and Mg^+2 (Gibco BRL), and trypsinized by a 3 minute incubation with 0.25% Trypsin/EDTA, phenol red-free (Gibco BRL). Cells are resuspended in assay medium and adjusted to 250,000 cells/ml. Approximately 25,000 cells in a 100 ul media are added to flat-bottom 96 wells microculture plates (Costar 3596) and incubated at 37° C. in a 5% CO2 humidified incubator for 24 hours. The next day, serial dilutions of compounds are prepared in assay medium (at 6 times the final concentration in the assay). The assay is run in dual mode, agonist and antagonist modes. For the agonist mode, plates receive 25 μl/well of assay medium followed by 25 μl/well of diluted compounds (at 6× the final concentrations). For the antagonist mode, plates receive 25 μl/well of 6 nM E2 (β-Estradiol, Sigma, St. Louis, Mo.) followed by 25 μl/well of diluted compounds (at 6× the final concentrations). After an additional 48-hour incubation at 37° C. in a 5% CO2 humidified incubator, media is aspirated from wells and 100 μl fresh assay medium is added to each microculture. Serial dilutions of compounds are prepared and added to the cells as described above. After an additional 72 hour incubation at 37° C. in a 5% CO2 humidified incubator, the assay is quenched by removing media and rinsing plates twice in Dulbecco's Phosphate Buffered Saline (1×) (D-PBS) (Gibco BRL). The plates are dried for 5 min and frozen at −70° C. for at least 1 hour. The plates are then removed from the freezer and allowed to thaw at room temperature. To each well, 100 μl of 1-Step™ PNPP (Pierce Chemical Company, Rockford, Ill.) is added. After a 20-minute incubation, plates are read on a spectophotometer at 405 nm. The data is fitted to a linear interpolation to derive EC50 (for agonist mode) or IC50 (for antagonist mode) values. For the agonist mode, a % efficacy for each compound is calculated versus the response to tamoxifen. For the antagonist mode, a % efficacy for each compound is calculated versus E2 (1 nM) alone.

[2] = target: T1, ERbeta receptor (PanVera) (Homo sapiens, UniProt Q92731); experiment: Competition binding assay, 3H-Estradiol, ERbeta receptor; conditions: 3H-Estradiol competition; IC50 converted to Ki using Cheng-Prusoff equation; read-out: ER binding Ki (ERβ)
T1 construct: purchased PanVera
Procedure: (§2) Competition binding assay is run in a buffer containing 50 mM Hepes, pH 7.5, 1.5 mM EDTA, 150 mM NaCl, 10% glycerol, 1 mg/ml ovalbumin and 5 mM DTT, using 0.025 μCi per well ^3H-Estradiol(NEN #NET517 at 118 Ci/mmol, 1 mCi/ml), 10 ng/well ERAlpha or ERbeta receptor (PanVera). Competing compounds are added at 10 different concentrations. Non-specific binding is determined in the presence of 1 μM of 17-B Estradiol. The binding reaction (140 μl) is incubated for 4 hours at room temperature, then 70 μl of cold DCC buffer is added to each reaction (DCC buffer contains per 50 ml of assay buffer, 0.75 g of charcoal (Sigma) and 0.25 g of dextran (Pharmacia)). Plates are mixed 8 minutes on an orbital shaker at 4° C. Plates are then centrifuged at 3,000 rpm at 4° C. for 10 minutes. An aliquot of 120 μl of the mix is transferred to another 96-well, white flat bottom plate (Costar) and 175 μl of Wallac Optiphase “Hisafe 3” scintillation fluid is added to each well. Plates are sealed and shaken vigorously on an orbital shaker. After an incubation of 2.5 hrs, read plates in a Wallac Microbeta counter. The data is used to calculate an IC50 and % Inhibition at 10 μM. The Kd for ^3H-Estradiol is determined by saturation binding to ER alpha and ER beta receptors. The IC50 values for compounds are converted to Ki using Cheng-Prusoff equation and the Kd determined by saturation binding assay.

[3] = target: T2, ERAlpha receptor (PanVera) (Homo sapiens, UniProt P03372); experiment: Competition binding assay, 3H-Estradiol, ERAlpha receptor; conditions: 3H-Estradiol competition; IC50 converted to Ki using Cheng-Prusoff equation; read-out: ER binding Ki (ERα)
T2 construct: purchased PanVera
T2 sequence (P03372 1-595): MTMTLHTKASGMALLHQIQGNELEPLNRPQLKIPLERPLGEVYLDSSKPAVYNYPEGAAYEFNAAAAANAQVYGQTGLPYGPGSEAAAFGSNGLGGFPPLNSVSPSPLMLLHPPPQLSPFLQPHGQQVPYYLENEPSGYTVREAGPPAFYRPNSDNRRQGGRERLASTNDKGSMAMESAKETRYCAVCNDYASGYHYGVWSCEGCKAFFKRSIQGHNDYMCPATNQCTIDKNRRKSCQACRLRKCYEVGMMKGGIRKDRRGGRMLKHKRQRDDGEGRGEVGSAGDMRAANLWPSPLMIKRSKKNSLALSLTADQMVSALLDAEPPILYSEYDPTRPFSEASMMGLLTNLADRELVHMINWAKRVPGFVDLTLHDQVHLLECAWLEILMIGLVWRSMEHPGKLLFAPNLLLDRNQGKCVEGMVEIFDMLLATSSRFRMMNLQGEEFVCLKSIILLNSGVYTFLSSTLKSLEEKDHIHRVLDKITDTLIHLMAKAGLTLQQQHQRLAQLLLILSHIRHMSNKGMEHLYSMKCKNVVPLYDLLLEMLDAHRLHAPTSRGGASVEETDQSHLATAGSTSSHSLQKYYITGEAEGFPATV
Procedure: as §2

[4] = test system: Ishikawa human endometrial tumor cells; experiment: Ishikawa alkaline phosphatase (PNPP) assay, agonist mode; type: cell-based; conditions: for Ishikawa Agonist % Eff: % efficacy versus the response to tamoxifen; for EC50: Homo sapiens, Ishikawa
Source text: as §1

[5] = test system: MCF-7 breast adenocarcinoma cells; experiment: MCF-7 proliferation assay (14C-thymidine), antagonist mode; type: cell-based; conditions: E2 10 pM
Procedure: MCF-7 breast adenocarcinoma cells (ATCC HTB 22) are maintained in MEM (minimal essential medium, phenol red-free, Gibco BRL) supplemented with 10% fetal bovine serum (FBS) (VV), L-glutamine (2 mM), sodium pyruvate (1 mM), HEPES ((N-[2-hydroxyethyl]piperazine-N′-[2-ethanesulfonic acid]10 mM}, non-essential amino acids (0.1 mM) and Penicillin Streptomycin (1×). Seven days prior to assay, MCF-7 cells are switched to assay media which is the same as maintenance medium except supplemented with 10% dextran-coated charcoal-stripped fetal bovine serum (DCC-FBS) assay medium in place of 10% FBS. MCF-7 cells are removed from flasks using 10× Trypsin EDTA (phenol red free, Gibco BRL) and diluted to IX in (Ca++/Mg++ free HBSS (phenol red-free). Cells are adjusted to 80,000 cells/ml in assay medium. Approximately 8,000 cells (100 μl) are added to each well in 96 well Cytostar T scintillation plates (Amersham) and incubated at 37° C. in a 5% CO2 humidified incubator for 24 hours to allow cell adherence and equilibration after transfer. Serial dilutions of drugs are prepared in assay medium at 4× the final desired concentration). A 50 μl aliquot of drug dilutions (at 4× the final assay concentration) is transferred to duplicate wells followed by 50 μl assay medium for the agonist mode or 50 μl of 40 pM of E2 for the antagonist mode to a final volume of 200 μl. For each of the agonist plates, a basal level (media) and a maximum stimulated level (with 1 μM E2) is determined. For each of the antagonist plates, a basal level (media) and a E2 (10 pM) alone control is determined. After an additional 48 hours at 37° C. in a 5% CO2 humidified incubator, 20 μl of assay medium containing 0.01 μCi of ^14C-thymidine (52 mCi/mmol, 50 μCi/ul, Amersham) is added to each well. The plates are incubated overnight in the same incubator and then counted on the Wallac Microbeta counter. The data is averaged to calculate an IC50 and % inhibition @ 1 μM for the antagonist mode. For the agonist mode, an EC50 and percent of maximum E2 stimulation and concentration of maximum stimulation is calculated.

[6] = Homo sapiens, MCF7, antagonist mode
[7] = antagonist mode, hydrochloride salt

T1 sequence (Q92731 whole entry): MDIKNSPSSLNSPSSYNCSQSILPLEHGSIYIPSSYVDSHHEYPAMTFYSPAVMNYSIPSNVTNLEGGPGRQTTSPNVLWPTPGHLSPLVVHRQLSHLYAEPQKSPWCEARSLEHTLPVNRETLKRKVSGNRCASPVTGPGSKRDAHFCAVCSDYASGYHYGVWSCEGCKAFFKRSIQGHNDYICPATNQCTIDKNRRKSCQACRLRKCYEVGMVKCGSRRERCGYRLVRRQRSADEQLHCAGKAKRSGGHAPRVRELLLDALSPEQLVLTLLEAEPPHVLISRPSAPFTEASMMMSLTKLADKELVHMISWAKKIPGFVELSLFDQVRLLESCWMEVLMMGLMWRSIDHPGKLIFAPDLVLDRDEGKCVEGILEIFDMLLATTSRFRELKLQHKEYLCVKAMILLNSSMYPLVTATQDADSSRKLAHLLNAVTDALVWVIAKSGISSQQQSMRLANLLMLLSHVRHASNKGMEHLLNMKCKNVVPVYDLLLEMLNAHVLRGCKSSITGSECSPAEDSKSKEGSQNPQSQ

| SMILES | IC50 ([1]; Homo sapiens, Ishikawa) | Ki [2] | Ki [3] | EC50 [4] | IC50 [5, 6] | IC50 [1] | IC50 ([5]; antagonist mode) | IC50 ([1]; hydrochloride salt) | IC50 [5, 7] | Ishikawa Agonist % Eff [4] | Ishikawa Agonist % Eff ([4]; hydrochloride salt) |
| --- | --- | --- | --- | --- | --- | --- | --- | --- | --- | --- | --- |
| Oc1ccc2c3c(sc2c1)-c1ccccc1COC3c1ccc(OCCN2CCCCC2)cc1 (stereo not drawn) [Example 2, 7-[4-(2-Piperidin-1-yl-ethoxy)-phenyl]-5H,7H-6-oxa-12-thia-dibenzo[a,e]azulen-10-ol] | 270 nM | 19 nM | 2.9 nM | 2.8 nM | 36 nM | – | – | – | – | 41% | – |
| Cl.Oc1ccc2c(c1)COC(c1ccc(OCCN3CCCCC3)cc1)c1c-2ccc2cc(O)ccc12 (single isomer, unassigned) [Example 7, 11-[4-(2-Piperidin-1-yl-ethoxy)-phenyl]-11,13-dihydro-12-oxa-benzo[3,4]cyclohepta[1,2-a]naphthalene-2,8-diolhydrochloride salt] | – | 1.7 nM | 0.7 nM | – | – | 2.2 nM | 0.4 nM | – | – | 2.6% | – |
| Cl.Oc1ccc2c(c1)COC(c1ccc(OCCN3CCCCC3)cc1)c1c-2ccc2cc(O)ccc12 (single isomer, unassigned) [Example 6, 11-[4-(2-Piperidin-1-yl-ethoxy)-phenyl]-11,13-dihydro-12-oxa-benzo[3,4]cyclohepta[1,2-a]naphthalene-2,8-diolhydrochloride salt] | – | 120 nM | 58 nM | 54 nM | – | 740 nM | 160 nM | – | – | 38% | – |
| Cl.Oc1ccc2c3c(ccc2c1)-c1ccc(F)cc1COC3c1ccc(OCCN2CCCCC2)cc1 (single isomer, unassigned) [Example 9, 2-Fluoro-11-[4-(2-piperidin-1-yl-ethoxy)-phenyl]-11,13-dihydro-12-oxa-benzo[3,4]cyclohepta[1,2-a]naphthalen-8-ol hydrochloride salt] | – | 89 nM | 62 nM | – | – | – | – | 350 nM | 68 nM | – | 11% |

Continued by falling Ki [3], values first:

| IC50 ([1]; Homo sapiens, Ishikawa) | Ki [2] | Ki [3] | EC50 [4] | IC50 [5, 6] | IC50 [1] | IC50 ([5]; antagonist mode) | IC50 ([1]; hydrochloride salt) | IC50 [5, 7] | SMILES | Ishikawa Agonist % Eff [4] | Ishikawa Agonist % Eff ([4]; hydrochloride salt) |
| --- | --- | --- | --- | --- | --- | --- | --- | --- | --- | --- | --- |
| – | – | 240 nM | 300 nM | – | – | – | – | – | COc1ccc2c3c(sc2c1)-c1ccccc1COC3c1ccc(OCCN2CCCCC2)cc1 (stereo not drawn) [Example 1, 1-{2-[4-(10-Methoxy-5H,7H-6-oxa-12-thia-dibenzo[a,e]azulen-7-yl)-phenoxy]-ethyl}-piperidine] | 31% | – |
| 340 nM | 430 nM | 140 nM | 260 nM | 480 nM | – | – | – | – | COc1ccc2c3c(ccc2c1)-c1ccccc1COC3c1ccc(OCCN2CCCCC2)cc1 (stereo not drawn) [Example 3, 1-{2-[4-(8-Methoxy-11,13-dihydro-12-oxa-benzo[3,4]cyclohepta[1,2-a]naphthalen-11-yl)-phenoxy]-ethyl}-piperidine] | 21% | – |
| 36 nM | 4 nM | 2.6 nM | 1.4 nM | 2.4 nM | – | – | – | – | Oc1ccc2c3c(ccc2c1)-c1ccccc1COC3c1ccc(OCCN2CCCCC2)cc1 (stereo not drawn) [Example 4, 11-[4-(2-Piperidin-1-yl-ethoxy)-phenyl]-11,13-dihydro-12-oxa-benzo[3,4]cyclohepta[1,2-a]naphthalen-8-ol trifluoroacetate] | 17% | – |
| – | 1.4 nM | 0.7 nM | – | – | – | – | 4.3 nM | 0.4 nM | Cl.Oc1ccc2c3c(ccc2c1)-c1ccc(F)cc1COC3c1ccc(OCCN2CCCCC2)cc1 (single isomer, unassigned) [Example 8, 2-Fluoro-11-[4-(2-piperidin-1-yl-ethoxy)-phenyl]-11,13-dihydro-12-oxa-benzo[3,4]cyclohepta[1,2-a]naphthalen-8-ol hydrochloride salt] | – | 8.8% |
